From patent publication US7589170B1, “Synthesis of cyclic peptides” (priority 1998, dated 2009)
Entries after “also recorded” stand apart in the source; their conditions may differ. Like-named read-outs stand apart in the source and are kept apart here.

Assays:
[1] = as originally found for the isolate from Stylotella aurantium; cited from earlier work
[2] = tested on: sympathetic varicosities of the mouse vas deferens; experiment: focal extracellular recording of evoked excitatory junction currents (EJC, measure of transmitter release); assay type: cell-based
Protocol: Each filled circle represents an EJC recorded during 100 minutes. Failure to record an EJC is indicated by filled circles on zero of the y-axis. The lower horizontal line indicates when the mixture of cyclic tetrapeptides (1 μM) was applied to the tissue bathing solution and the upper horizontal line when naloxone (1 μM) was added to the tissue bathing solution. […] Cyclo [Tyr-Arg-Phe-Gly] is SEQ ID NO:42.
Each bar is the average of at least 60 recordings, and the vertical lines show the standard deviation of the mean. […] Cyclo [Tyr-Arg-Phe-Gly] is SEQ ID NO:42.
Demorphin is a opioid heptapeptide isolated from the skin of South American frogs, and has the following sequence; {H-Tyr-D-Ala-Phe-Gly-Tyr-Pro-Ser-NH2; SEQ ID NO:71). The tetrapeptide analogues (H-Tyr-D-Ala-Phe-Gly-NH-Y; SEQ ID NO:29) are potent analgesics when administered by intracerebroventricular injection. In Example 3 we synthesised the cyclic tetrapeptides cyclo[Tyr-Arg-Phe-Gly] (SEQ ID NO:42) and cyclo[Tyr-Arg-D-Phe-Gly] (SEQ ID NO:42) designated WP 152 using our combination strategies.

[3] = the molecule shown is the open-chain precursor, amide bond, 15-membered ring
[4] = stability to heating in DMSO; assay type: physicochemical; conditions: 20 h at 70° C. in DMSO
[5] = stability to hydrolysis in aqueous buffer at pH 9; assay type: physicochemical
[6] = from H-(Hnb)Tyr-Arg-(Hnb)Phe-Ala-OH, amide bond, 12-membered ring
[7] = amide bond, 21-membered ring, BOP/2,6-lutidine, resin, -10.0 °C, with chain assembly
[8] = amide bond, 16-membered ring, HATU/DIEA, DMF, resin, with chain assembly
[9] = amide bond, DIEA, DMF, resin, with chain assembly

For `CCC(C)[C@@H]1NC(=O)[C@H](C)NC(=O)C(CC(C)C)NC(=O)[C@H](CO)NC(=O)C(CC(N)=O)NC(=O)[C@H](Cc2ccccc2)NC(=O)[C@@H]2CCCN2C1=O` (stereo in doubt) [stylostatin, Cyclo-(Pro-Phe-Asn-Ser-Leu-Ala-Ile)], the cytotoxicity [1] is listed as “highly cytotoxic”.
`CC[C@H](C)[C@@H]1NC(=O)[C@H](C)NC(=O)[C@H](CC(C)C)NC(=O)[C@H](CO)NC(=O)[C@H](CC(N)=O)NC(=O)[C@H](Cc2ccccc2)NC(=O)[C@@H]2CCCN2C1=O` [Cyclo-(Pro-Phe-Asn-Ser-Leu-Ala-Ile)] showed a ring closure, yield after HPLC (from H-Asn-Ser-Leu-Ala-Ile-Pro-Phe-OH, amide bond, 21-membered ring, BOP/DIPEA, DMF, 1.0 mM, -10.0 °C) of 48%.
`N=C(N)NCCC[C@H]1C(=O)N[C@@H](Cc2ccccc2)C(=O)NCC(=O)N(Cc2c(O)cccc2[N+](=O)[O-])[C@@H](Cc2ccc(O)cc2)C(=O)N1Cc1c(O)cccc1[N+](=O)[O-]` [Cyclo-[(Hnb)Tyr-(Hnb)Arg-Phe-Gly]] showed a ring closure, yield after HPLC (from H-(Hnb)Tyr-(Hnb)Arg-Phe-Gly-OH?, amide bond, 12-membered ring, BOP/DIEA, DMF, 1.1 mM, 25.0 °C) of 61%.
With `C[C@@H]1NC(=O)[C@H](Cc2ccccc2)N(Cc2c(O)cccc2[N+](=O)[O-])C(=O)[C@H](CCCNC(=N)N)NC(=O)[C@H](Cc2ccc(O)cc2)N(Cc2c(O)cccc2[N+](=O)[O-])C1=O` [Cyclo-[(Hnb)Tyr-Arg-(Hnb)Phe-Ala]] the ring closure, yield after HPLC (from H-(Hnb)Tyr-Arg-(Hnb)Phe-Ala-OH?, amide bond, 12-membered ring) was 60%.
Compound `CC(C)C[C@@H]1NC(=O)[C@H](Cc2ccccc2)NC(=O)[C@H](C)N(Cc2cc([N+](=O)[O-])ccc2O)C(=O)[C@H](C)NC(=O)[C@@H]2CCCN2C1=O` [Cyclo-[N-(5-nitro-2-hydroxybenzyl)-Ala-Phe-Leu-Pro-Ala]] has a ring closure, yield after HPLC (from H-(5-nitro-2-hydroxybenzyl)Ala-Phe-Leu-Pro-Ala-OH, amide bond, 15-membered ring, BOP/DIEA, DMF, 1.0 mM, 25.0 °C) of 51%.
Work on `CC(C)C[C@@H]1NC(=O)[C@H](Cc2ccccc2)NC(=O)[C@H](C)N(Cc2c(O)cccc2[N+](=O)[O-])C(=O)[C@H](C)NC(=O)[C@@H]2CCCN2C1=O` [Cyclo-[N-(6-nitro-2-hydroxybenzyl)-Ala-Phe-Leu-Pro-Ala]] yielded a ring closure, yield after HPLC (from H-(6-nitro-2-hydroxybenzyl)Ala-Phe-Leu-Pro-Ala-OH, amide bond, 15-membered ring, BOP/DIEA, DMF, 1.0 mM, 25.0 °C) of 39%.
Compound `CC(C)C[C@@H]1NC(=O)[C@H](Cc2ccccc2)N(Cc2c(O)cccc2[N+](=O)[O-])C(=O)[C@H](C)NC(=O)[C@H](C)NC(=O)[C@@H]2CCCN2C1=O` [Cyclo-[N-(6-nitro-2-hydroxybenzyl)-Phe-Leu-Pro-Ala-Ala]] has a ring closure, yield after HPLC (from H-(6-nitro-2-hydroxybenzyl)Phe-Leu-Pro-Ala-Ala-OH, amide bond, 15-membered ring, BOP/DIEA, DMF, 1.0 mM, 25.0 °C) of 44%.
Compound `C[C@H]1C(=O)N[C@@H](Cc2ccc(O)cc2)C(=O)N(Cc2c(O)cccc2[N+](=O)[O-])[C@@H](CCCNC(=N)N)C(=O)N[C@@H](Cc2ccccc2)C(=O)N1Cc1c(O)cccc1[N+](=O)[O-]` [H-(Hnb)Ala-Tyr-(Hnb)Arg-Phe-OH] has a ring closure, yield after HPLC (from H-(Hnb)Ala-Tyr-(Hnb)Arg-Phe-OH, amide bond, 12-membered ring, BOP/DIEA, DMF, 1.0 mM, 25.0 °C) of 53%.
`N=C(N)NCCC[C@H]1C(=O)N[C@@H](Cc2ccccc2)C(=O)N(Cc2c(O)cccc2[N+](=O)[O-])CC(=O)N[C@@H](Cc2ccc(O)cc2)C(=O)N1Cc1c(O)cccc1[N+](=O)[O-]` [H-(Hnb)Gly-Tyr-(Hnb)Arg-Phe-OH?] gave a ring closure, yield after HPLC (from H-(Hnb)Gly-Tyr-(Hnb)Arg-Phe-OH?, amide bond, 12-membered ring, BOP/DIEA, DMF, 1.18 mM) of 68%.
With `COc1ccc(CN2CC(=O)NCC(=O)NCC(=O)N(Cc3ccc(OC)cc3O)CC2=O)c(O)c1` [H-Gly-(HMB)Gly-(HMB)Gly-Gly-OH] the ring closure, yield after HPLC (from H-Gly-(HMB)Gly-(HMB)Gly-Gly-OH, amide bond, 12-membered ring, BOP/DIEA, DMF, 1.0 mM) was 16%.
`O=C1CNC(=O)CNC(=O)CNC(=O)CN1` [H-Gly-Gly-Gly-Gly-OH] gave a ring closure, yield after HPLC (from H-Gly-Gly-Gly-Gly-OH, amide bond, 12-membered ring, BOP/DIEA, DMF, 1.0 mM) of 1%.
`CN1CC(=O)NCC(=O)NCC(=O)NCC1=O` [H-Gly-Gly-Gly-MeGly-OH] gave a ring closure, yield after HPLC (from H-Gly-Gly-Gly-MeGly-OH, amide bond, 12-membered ring, BOP/DIEA, DMF, 1.0 mM) of 8%.
`CN1CC(=O)NCC(=O)NCC(=O)NCC1=O` [H-Gly-Gly-MeGly-Gly-OH] gave a ring closure, yield after HPLC (from H-Gly-Gly-MeGly-Gly-OH, amide bond, 12-membered ring, BOP/DIEA, DMF, 1.0 mM) of 11%.
With `CN1CC(=O)NCC(=O)NCC(=O)N(C)CC1=O` [H-Gly-Gly-MeGly-MeGly-OH] the ring closure, yield after HPLC (from H-Gly-Gly-MeGly-MeGly-OH, amide bond, 12-membered ring) was 18%.
With `CN1CC(=O)NCC(=O)NCC(=O)NCC1=O` [H-Gly-MeGly-Gly-Gly-OH] the ring closure, yield after HPLC (from H-Gly-MeGly-Gly-Gly-OH, amide bond, 12-membered ring, BOP/DIEA, DMF, 1.0 mM) was 1%.
`CN1CC(=O)NCC(=O)N(C)CC(=O)NCC1=O` [H-Gly-MeGly-Gly-MeGly-OH] gave a ring closure, yield after HPLC (from H-Gly-MeGly-Gly-MeGly-OH, amide bond, 12-membered ring, BOP/DIEA, DMF, 1.0 mM) of 2%.
Compound `CN1CC(=O)NCC(=O)NCC(=O)N(C)CC1=O` [H-Gly-MeGly-MeGly-Gly-OH] has a ring closure, yield after HPLC (from H-Gly-MeGly-MeGly-Gly-OH, amide bond, 12-membered ring) of 13%.
In the case of `CN1CC(=O)NCC(=O)N(C)CC(=O)N(C)CC1=O` [H-Gly-MeGly-MeGly-MeGly-OH], the ring closure, yield after HPLC (from H-Gly-MeGly-MeGly-MeGly-OH, amide bond, 12-membered ring, BOP/DIEA, DMF, 1.0 mM) is reported as 5%.
For `CC[C@H](C)[C@@H]1NC(=O)[C@H](C)NC(=O)[C@H](CC(C)C)NC(=O)[C@H](CO)NC(=O)[C@H](CC(N)=O)NC(=O)[C@H](Cc2ccccc2)NC(=O)[C@@H]2CCCN2C1=O` [cyclo-(Pro-Phe-Asn-Ser-Leu-Ala-Ile)], the ring closure, yield after HPLC (from H-Pro-Phe-Asn-Ser-Leu-Ala-Ile-OH, amide bond, 21-membered ring, BOP/DIPEA, DMF, -10.0 °C) was 67%.
For `C[C@@H]1NC(=O)[C@H](Cc2ccccc2)N(Cc2c(O)cccc2[N+](=O)[O-])C(=O)[C@H](CCCNC(=N)N)NC(=O)[C@H](Cc2ccc(O)cc2)N(Cc2c(O)cccc2[N+](=O)[O-])C1=O` [cyclo-[(Hnb)Tyr-Arg-(Hnb)Phe-(D)Ala]], the ring closure, yield after HPLC [6] was 18%.
For `C[C@@H]1NC(=O)[C@H](Cc2ccccc2)N(Cc2c(O)cccc2[N+](=O)[O-])C(=O)[C@H](CCCNC(=N)N)NC(=O)[C@H](Cc2ccc(O)cc2)N(Cc2c(O)cccc2[N+](=O)[O-])C1=O` [cyclo-[(Hnb)Tyr-Arg-(Hnb)Phe-Ala]], the ring closure, yield after HPLC [6] was 13%.
For `C=CCN1CC[C@]23c4c5ccc(O)c4O[C@H]2C(=O)CC[C@@]3(O)[C@H]1C5` [naloxone, reference compound], the “effect of naloxone on the EJC reduction caused by the cyclic tetrapeptide mixture” value ([2]; naloxone 1 μM added to the tissue bathing solution with the tetrapeptide mixture (1 μM)) was “inhibits this effect; also recorded: reversed”.
With Cyclo-(Pro-Phe-Asn-Ser-Leu-Ala-Ile) the ring closure, yield after HPLC [7] was 10%.
For Cyclo-(SCH2CH2-Gly-Arg-Pro-Phe-Gly), the ring closure, yield after HPLC (other bond, 18-membered ring, BOP/DIEA, DMF, 1.0 mM, -10.0 °C) was 31%.
Cyclo-[Arg-Gly-Asp-Gly-β-Ala] gave a ring closure, yield after HPLC [8] of 9%.
In the case of Cyclo-[DGCatRG], the ring closure, yield after HPLC (amide bond, 16-membered ring, DIEA, DMF, resin, with chain assembly) is reported as 11%.
For Cyclo-[Leu-Asp-Val-Gly-β-Ala], the ring closure, yield after HPLC [8] was 18%.
With Cyclo-[Phe-Lys-Trp-Gly-β-Ala] the ring closure, yield after HPLC [8] was 15%.
H-Ala-Phe-Leu-Pro-Ala-O-linker-resin? showed a ring closure, conversion ([3]; resin) of 0%.
H-Ala-Phe-Leu-Pro-Ala-OH? showed a ring closure, conversion ([3]; BOP/DIEA) of 0%.
cyclo-(Pro-Phe-Asn-Ser-Leu-Ala-Ile) showed a ring closure, yield after HPLC [7] of 25%.
For “cyclo-[(Hnb)Tyr-Arg-(Hnb)Phe-(D)Ala] [Product A]”, the stability to heat [4] was “Unstable to heat” and the stability to hydrolysis [5] was “Stable to hydrolysis”.
In the case of “cyclo-[(Hnb)Tyr-Arg-(Hnb)Phe-Ala] [Product B]”, the stability to heat [4] is reported as “Stable to heat” and the stability to hydrolysis [5] is reported as “Stable”.
cyclo-[D-G-Amb-R-G] gave a ring closure, yield after HPLC (amide bond, DIPEA, DMF, resin, with chain assembly) of 49%.
cyclo-[DAmbGRG] showed a ring closure, yield after HPLC [9] of 5%.
Work on cyclo-[DGAmbRG] yielded a ring closure, yield after HPLC [9] of 7.6%.
With “cyclo[Tyr-Arg-Phe-Gly] (SEQ ID NO:42) and cyclo[Tyr-Arg-D-Phe-Gly] (SEQ ID NO:42) [WP 152]” the “EJC amplitude and frequency” value ([2]; 1 μM in tissue bathing solution, EJCs recorded during 100 minutes (FIG. 10)) was “greatly reduces the EJC amplitude and frequency”, the “average excitatory junction current (EJC) amplitude and frequency” value ([2]; 1 μM, following 20 minutes of exposure, each bar average of at least 60 recordings (FIG. 11)) was “highly significant decrease” and the transmitter release ([2]; FIGS. 10 and 11, mixture of compounds) was “greatly reduces transmitter release”. The “opiate agonism inferred from reversal by naloxone” value ([2]; one or both of the compounds, strongly suggested, not measured directly) was “potent μ-opiate agonists”.
